# Active and inactive are the calls of the source.
# How the values were obtained:
# [1] = molecular target: Melanocortin receptor 4 (Homo sapiens, UniProt P32245); format: functional, cell-based;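 note: Cell-based assay with luminescence read-out, confirmatory dose-response testing for agonist activity of biased ligands at MC4R; human U2OS cells with tagged receptor and beta-arrestin; potency of agonists that increase receptor coupling to beta-arrestin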
# [2] = molecular target: T1, Calpain-2 catalytic subunit (Sus scrofa, UniProt P43367); assay: m-calpain protease blockers, concentration series – biochemical, fluorogenic peptide substrate, dose response (AID 1420); format: functional
# T1 sequence (P43367 whole entry): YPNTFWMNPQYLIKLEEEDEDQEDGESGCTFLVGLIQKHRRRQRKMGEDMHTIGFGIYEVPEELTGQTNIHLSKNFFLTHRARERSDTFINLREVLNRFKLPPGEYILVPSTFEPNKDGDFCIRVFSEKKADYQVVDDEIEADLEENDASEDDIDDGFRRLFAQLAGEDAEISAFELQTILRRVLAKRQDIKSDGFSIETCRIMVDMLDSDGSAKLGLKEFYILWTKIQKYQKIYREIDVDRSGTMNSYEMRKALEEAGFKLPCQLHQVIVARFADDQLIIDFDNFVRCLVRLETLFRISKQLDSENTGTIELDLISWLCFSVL
# [3] = molecular target: T2, Sentrin-specific protease 8 (Homo sapiens, UniProt Q96LD8); format: functional
# T2 sequence (Q96LD8 whole entry): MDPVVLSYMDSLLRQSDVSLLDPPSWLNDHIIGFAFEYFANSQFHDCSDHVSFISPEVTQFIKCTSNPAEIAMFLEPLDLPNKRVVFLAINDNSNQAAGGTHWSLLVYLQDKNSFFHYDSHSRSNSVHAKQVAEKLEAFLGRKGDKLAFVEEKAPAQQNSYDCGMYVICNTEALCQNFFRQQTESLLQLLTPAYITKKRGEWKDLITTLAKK
# [4] = molecular target: T3, Caspase-3 (Homo sapiens, UniProt P42574); assay: Dose-response confirmation of uHTS inhibitor hits of Sentrin-Specific Protease 8 in a Caspase-3 Fluorescence assay.; format: functional
# T3 sequence (P42574 whole entry): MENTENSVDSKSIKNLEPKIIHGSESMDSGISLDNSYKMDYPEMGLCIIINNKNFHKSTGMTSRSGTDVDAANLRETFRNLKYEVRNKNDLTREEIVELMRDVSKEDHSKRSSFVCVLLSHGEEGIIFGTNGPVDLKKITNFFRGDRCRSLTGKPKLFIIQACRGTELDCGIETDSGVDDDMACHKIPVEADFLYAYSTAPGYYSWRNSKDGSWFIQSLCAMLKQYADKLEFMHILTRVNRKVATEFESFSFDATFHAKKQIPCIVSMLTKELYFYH
# [5] = molecular target: T2, Sentrin-specific protease 8; format: functional; remark: listed apart in the source
# [6] = molecular target: T4, Orexin/Hypocretin receptor type 1 (Homo sapiens, UniProt O43613); assay: (§1) Fluorescence-based cell-based high throughput dose response assay for antagonists of the orexin 1 receptor (OX1R; HCRTR1). [Related pubchem assays (depositor defined):AID434989, AID435008, AID463079, AID485270, AID492963, AID492964, AID492965, AID493232, AID504717, AID504718]; format: functional
# T4 sequence (O43613 whole entry): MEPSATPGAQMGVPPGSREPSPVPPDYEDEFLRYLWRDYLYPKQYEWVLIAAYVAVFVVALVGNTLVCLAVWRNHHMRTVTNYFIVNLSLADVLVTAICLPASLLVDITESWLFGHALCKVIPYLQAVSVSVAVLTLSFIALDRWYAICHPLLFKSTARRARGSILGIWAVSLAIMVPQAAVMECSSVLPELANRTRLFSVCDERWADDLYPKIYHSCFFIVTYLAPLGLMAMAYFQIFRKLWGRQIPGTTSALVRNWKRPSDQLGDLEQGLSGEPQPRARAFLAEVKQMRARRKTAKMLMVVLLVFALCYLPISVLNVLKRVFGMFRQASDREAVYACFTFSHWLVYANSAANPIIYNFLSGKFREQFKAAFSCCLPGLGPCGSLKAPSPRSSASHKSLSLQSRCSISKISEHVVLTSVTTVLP
# [7] = molecular target: T5, Orexin receptor type 2 (Homo sapiens, UniProt O43614); assay: Counterscreen assay for antagonists of the orexin 1 receptor (OX1R; HCRTR1): Homogeneous Time Resolved Fluorescence (HTRF)-based cell-based dose response assay for antagonists of the orexin 2 receptor (OX2R; HCRTR2), run by assay provider.; format: functional
# T5 sequence (O43614 whole entry): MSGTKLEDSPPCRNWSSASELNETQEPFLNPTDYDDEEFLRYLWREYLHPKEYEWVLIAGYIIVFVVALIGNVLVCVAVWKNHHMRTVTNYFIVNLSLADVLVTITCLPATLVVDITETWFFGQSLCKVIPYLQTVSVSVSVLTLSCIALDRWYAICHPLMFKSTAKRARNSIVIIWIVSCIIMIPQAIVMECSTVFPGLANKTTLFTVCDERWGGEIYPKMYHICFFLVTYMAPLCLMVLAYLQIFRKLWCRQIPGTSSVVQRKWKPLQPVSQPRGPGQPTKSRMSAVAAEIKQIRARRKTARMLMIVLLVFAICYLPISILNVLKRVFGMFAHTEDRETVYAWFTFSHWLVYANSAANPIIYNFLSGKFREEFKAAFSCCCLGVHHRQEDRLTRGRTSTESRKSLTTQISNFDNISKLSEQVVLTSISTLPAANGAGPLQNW
# [8] = (§2) Counterscreen for antagonists of the orexin 1 receptor (OX1R; HCRTR1): Fluorescence-based cell-based high throughput dose response assay to identify antagonists of the parental CHO cell line. [Related pubchem assays (depositor defined):AID434989, AID435008, AID463079, AID485270, AID492963, AID492964, AID492965, AID493232, AID504699, AID504701]; format: functional
# [9] = molecular target: T4, Orexin/Hypocretin receptor type 1; assay: as §1, with “Homogeneous Time Resolved Fluorescence (HTRF)-based” for “Fluorescence-based”; format: functional
# [10] = test system: CHO-K1; assay: as §2, with “Homogeneous time resolved fluorescence (HTRF)-based” for “Fluorescence-based”, “cell-based” for “cell-based high throughput”, “CHO-K1” for “CHO”; format: functional; conditions: Cricetulus griseus;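 note: potency for inhibition of ATP-stimulated IP1 production as antagonists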
# [11] = molecular target: T5, Orexin receptor type 2; assay: Counterscreen assay for antagonists of the orexin 1 receptor (OX1R; HCRTR1): Fluorescence-based cell-based dose response assay for antagonists of the orexin 2 receptor (OX2R; HCRTR2), run by assay provider.; format: functional
# [12] = molecular target: Hepatocyte nuclear factor 4-alpha (Homo sapiens, UniProt P41235); format: functional, cell-based;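 note: biochemical luminescence-based dose-response counterscreen measuring inhibition of HNF4 dimerization, run alongside a screen for blockers of ABHD5–perilipin-5 interaction; split luciferase complementation of HNF4 fusion proteins in cell lysate measuring dimerization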
# [13] = molecular target: T6, Heat shock factor protein 1 (Mus musculus, UniProt P38532); assay: enhancement of HSF1-driven luciferase signal – cell-based, NIH3T3, luminescence, dose retest, confirmation (AID 435004); format: functional;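 note: stress induced by proteasome inhibitor MG132 added 30 min after compound; luciferase reporter driven by HSF1 response element in NIH3T3 cells; actives raise luminescence as potentiators of the MG132 stress response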
# T6 sequence (P38532 whole entry): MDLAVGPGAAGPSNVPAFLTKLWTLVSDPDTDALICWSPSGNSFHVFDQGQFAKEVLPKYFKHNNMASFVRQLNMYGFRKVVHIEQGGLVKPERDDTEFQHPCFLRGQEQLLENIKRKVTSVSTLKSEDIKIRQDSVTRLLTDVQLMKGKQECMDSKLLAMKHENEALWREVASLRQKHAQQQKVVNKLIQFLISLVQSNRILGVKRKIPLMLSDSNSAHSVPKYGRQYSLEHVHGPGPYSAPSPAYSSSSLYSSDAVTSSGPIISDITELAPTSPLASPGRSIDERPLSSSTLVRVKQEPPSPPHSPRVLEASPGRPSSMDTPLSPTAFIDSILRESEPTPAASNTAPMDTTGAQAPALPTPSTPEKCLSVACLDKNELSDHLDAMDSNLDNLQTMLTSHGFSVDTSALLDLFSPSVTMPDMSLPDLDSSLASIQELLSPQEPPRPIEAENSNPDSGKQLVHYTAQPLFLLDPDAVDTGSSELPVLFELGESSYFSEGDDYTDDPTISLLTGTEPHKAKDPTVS
# [14] = molecular target: T7, SUMO-activating enzyme (Homo sapiens, UniProt Q9UBT2); assay: blockers of UBC9-mediated SUMO conjugation – biochemical, AlphaScreen, SUMOylation inhibitor project, confirmation (AID 2018); format: functional
# [15] = molecular target: Long-chain-fatty-acid--AMP ligase FadD28 (Mycobacterium tuberculosis, UniProt P9WQ59); assay: Fluorescence polarization aasay to screen for inhibitors that compete for the binding of FadD28 to a bisubstrate Measured in Biochemical System Using Plate Reader - 2147-01_Inhibitor_Dose_CherryPick_Activity.; format: functional, Mycobacterium tuberculosis H37Rv
# [16] = molecular target: Genome polyprotein (dengue virus type 2, UniProt P29990); assay: flavivirus cap methylation enzyme inhibition – biochemical, confirmation dose response, primary screen (AID 588689); format: functional
# [17] = molecular target: T7, SUMO-activating enzyme; assay: blockers of SAE1/SAE2–UBC9 SUMO transfer – biochemical, HTRF, uHTS, primary screen (AID 2006); format: protein-complex assay
# [18] = molecular target: T8, Polyadenylate-binding protein 1 (Homo sapiens, UniProt P11940); assay: MLLE domain peptide-binding blockers, IC50 – biochemical, fluorescence polarization, FITC-PAM2 peptide, dose response (AID 602259); format: functional; conditions: read-out: IC50_Mean
# [19] = molecular target: T9, Mitochondrial peptide methionine sulfoxide reductase (Bos taurus, UniProt P54149); assay: Absorbance-based biochemical high throughput dose response assay for activators of Methionine sulfoxide reductase A (MsrA).; format: functional
# T9 sequence (P54149 whole entry): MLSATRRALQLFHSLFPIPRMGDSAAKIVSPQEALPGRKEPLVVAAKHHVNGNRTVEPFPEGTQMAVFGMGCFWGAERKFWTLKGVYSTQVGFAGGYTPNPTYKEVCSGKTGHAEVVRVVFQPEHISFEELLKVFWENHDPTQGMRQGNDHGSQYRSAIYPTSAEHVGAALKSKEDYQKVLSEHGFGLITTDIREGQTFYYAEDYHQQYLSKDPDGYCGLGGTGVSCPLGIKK
# [20] = molecular target: T8, Polyadenylate-binding protein 1; assay: MLLE binding blockers, Cy5 peptide tracer – biochemical, fluorescence polarization, Cy5-PAM2 peptide, secondary, miRNA deadenylation inhibitor project, dose response (AID 602260); format: functional; conditions: read-out: IC50_Mean
# [21] = molecular target: Fructose-bisphosphate aldolase (Mycobacterium tuberculosis, UniProt P9WQA3); assay: Fluorescence-based biochemical high throughput dose response assay for inhibitors of the fructose-bisphosphate aldolase (FBA) of M. tuberculosis.; format: functional
# [22] = molecular target: Ras and Rab interactor 1/Tyrosine-protein kinase ABL1 (Homo sapiens, UniProt P00519+Q13671); format: functional;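 note: biochemical TR-FRET dose-response test measuring inhibition of binding between Rin1 and Abl proteins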
# [23] = molecular target: Steroidogenic factor 1 (Homo sapiens, UniProt Q13285); assay: Counterscreen for inverse agonists of the liver receptor homolog-1 (LRH-1; NR5A2): Luminescence-based cell-based high throughput dose response assay to identify inverse agonists of the Steroidogenic Factor 1 Nuclear Receptor (SF1; NR5A1).; format: functional
# [24] = molecular target: Nuclear receptor subfamily 5 group A member 2 (Homo sapiens, UniProt O00482); format: functional, cell-based;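 note: HEK293T cells transfected with LRH-1 and a StAR promoter luciferase reporter; potency for inhibitors that lower LRH-1 driven reporter light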
# [25] = nonselective StAR promoter luciferase inhibitors – cell-based, luminescence, luciferase reporter, counter-screen for LRH-1 inverse agonist project, dose response (AID 651969); format: functional
# Sequence of Nuclear receptor subfamily 5 group A member 2 (O00482 whole entry): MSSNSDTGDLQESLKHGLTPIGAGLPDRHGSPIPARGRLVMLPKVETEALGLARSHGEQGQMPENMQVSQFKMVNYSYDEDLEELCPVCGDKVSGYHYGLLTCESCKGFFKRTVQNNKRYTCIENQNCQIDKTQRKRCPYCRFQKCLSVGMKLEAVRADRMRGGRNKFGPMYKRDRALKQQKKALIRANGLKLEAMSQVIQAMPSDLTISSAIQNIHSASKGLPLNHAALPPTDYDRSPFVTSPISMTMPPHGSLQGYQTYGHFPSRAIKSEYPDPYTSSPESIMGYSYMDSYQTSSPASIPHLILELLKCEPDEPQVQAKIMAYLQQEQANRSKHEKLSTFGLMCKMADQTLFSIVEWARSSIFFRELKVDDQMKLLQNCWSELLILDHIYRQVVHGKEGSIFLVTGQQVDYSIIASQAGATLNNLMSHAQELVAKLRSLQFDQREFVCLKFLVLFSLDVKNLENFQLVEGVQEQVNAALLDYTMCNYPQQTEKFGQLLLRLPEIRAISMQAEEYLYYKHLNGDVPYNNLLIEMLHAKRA
# Sequence of Long-chain-fatty-acid--AMP ligase FadD28 (P9WQ59 whole entry): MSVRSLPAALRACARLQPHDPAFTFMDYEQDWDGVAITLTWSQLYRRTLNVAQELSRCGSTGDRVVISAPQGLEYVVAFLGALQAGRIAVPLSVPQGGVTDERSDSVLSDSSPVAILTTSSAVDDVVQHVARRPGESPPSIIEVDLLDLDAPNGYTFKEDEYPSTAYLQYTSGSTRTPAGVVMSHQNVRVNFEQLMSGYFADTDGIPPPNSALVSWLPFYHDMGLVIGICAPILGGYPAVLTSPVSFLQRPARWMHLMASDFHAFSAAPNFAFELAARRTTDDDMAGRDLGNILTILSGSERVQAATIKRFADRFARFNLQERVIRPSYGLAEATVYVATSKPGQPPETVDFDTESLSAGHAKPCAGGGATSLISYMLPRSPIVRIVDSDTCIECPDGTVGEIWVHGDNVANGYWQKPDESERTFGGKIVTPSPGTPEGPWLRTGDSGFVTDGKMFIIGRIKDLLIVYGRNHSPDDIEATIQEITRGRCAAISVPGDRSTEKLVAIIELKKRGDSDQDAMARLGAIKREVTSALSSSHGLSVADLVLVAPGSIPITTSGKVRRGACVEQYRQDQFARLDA
# Sequence of Steroidogenic factor 1 (Q13285 whole entry): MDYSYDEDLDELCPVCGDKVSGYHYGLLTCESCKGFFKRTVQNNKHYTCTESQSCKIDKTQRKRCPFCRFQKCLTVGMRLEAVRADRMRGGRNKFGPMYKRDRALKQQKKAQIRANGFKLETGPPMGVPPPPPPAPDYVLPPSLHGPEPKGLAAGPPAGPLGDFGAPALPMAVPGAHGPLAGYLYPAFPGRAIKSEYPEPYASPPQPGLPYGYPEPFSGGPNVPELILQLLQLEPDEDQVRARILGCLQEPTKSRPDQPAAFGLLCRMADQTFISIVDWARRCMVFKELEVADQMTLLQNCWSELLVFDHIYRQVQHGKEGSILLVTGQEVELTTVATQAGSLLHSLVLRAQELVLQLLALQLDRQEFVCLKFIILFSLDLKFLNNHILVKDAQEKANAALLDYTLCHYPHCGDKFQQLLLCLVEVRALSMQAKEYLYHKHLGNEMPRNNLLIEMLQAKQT
# T8 sequence (P11940 whole entry, the tested form may be a part): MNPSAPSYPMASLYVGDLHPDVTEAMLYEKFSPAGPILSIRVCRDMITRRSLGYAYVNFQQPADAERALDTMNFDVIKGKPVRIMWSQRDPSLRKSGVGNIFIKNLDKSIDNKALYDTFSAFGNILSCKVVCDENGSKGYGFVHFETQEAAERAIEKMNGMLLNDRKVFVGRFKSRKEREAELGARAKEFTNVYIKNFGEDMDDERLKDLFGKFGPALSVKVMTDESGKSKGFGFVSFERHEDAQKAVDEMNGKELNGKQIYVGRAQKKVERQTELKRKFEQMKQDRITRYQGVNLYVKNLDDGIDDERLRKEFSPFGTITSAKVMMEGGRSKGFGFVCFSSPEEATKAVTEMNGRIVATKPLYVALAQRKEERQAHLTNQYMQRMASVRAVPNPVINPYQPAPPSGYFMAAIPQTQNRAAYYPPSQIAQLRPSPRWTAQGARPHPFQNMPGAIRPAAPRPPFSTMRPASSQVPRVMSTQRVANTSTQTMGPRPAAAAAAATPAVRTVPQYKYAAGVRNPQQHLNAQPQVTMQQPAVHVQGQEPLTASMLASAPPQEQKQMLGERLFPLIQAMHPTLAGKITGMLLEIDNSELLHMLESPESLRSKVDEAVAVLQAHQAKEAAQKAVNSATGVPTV
# T7 sequence (Q9UBE0 whole entry): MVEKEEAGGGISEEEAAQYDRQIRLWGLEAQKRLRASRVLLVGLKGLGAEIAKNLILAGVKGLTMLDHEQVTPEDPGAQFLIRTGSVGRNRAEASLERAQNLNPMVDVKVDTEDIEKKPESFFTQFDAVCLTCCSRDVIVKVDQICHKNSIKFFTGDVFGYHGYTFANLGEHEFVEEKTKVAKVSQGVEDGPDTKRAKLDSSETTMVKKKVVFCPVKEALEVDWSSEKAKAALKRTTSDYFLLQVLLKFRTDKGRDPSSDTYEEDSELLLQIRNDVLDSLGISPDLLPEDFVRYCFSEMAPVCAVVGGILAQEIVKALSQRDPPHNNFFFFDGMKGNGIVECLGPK
# T7 sequence (Q9UBT2 whole entry): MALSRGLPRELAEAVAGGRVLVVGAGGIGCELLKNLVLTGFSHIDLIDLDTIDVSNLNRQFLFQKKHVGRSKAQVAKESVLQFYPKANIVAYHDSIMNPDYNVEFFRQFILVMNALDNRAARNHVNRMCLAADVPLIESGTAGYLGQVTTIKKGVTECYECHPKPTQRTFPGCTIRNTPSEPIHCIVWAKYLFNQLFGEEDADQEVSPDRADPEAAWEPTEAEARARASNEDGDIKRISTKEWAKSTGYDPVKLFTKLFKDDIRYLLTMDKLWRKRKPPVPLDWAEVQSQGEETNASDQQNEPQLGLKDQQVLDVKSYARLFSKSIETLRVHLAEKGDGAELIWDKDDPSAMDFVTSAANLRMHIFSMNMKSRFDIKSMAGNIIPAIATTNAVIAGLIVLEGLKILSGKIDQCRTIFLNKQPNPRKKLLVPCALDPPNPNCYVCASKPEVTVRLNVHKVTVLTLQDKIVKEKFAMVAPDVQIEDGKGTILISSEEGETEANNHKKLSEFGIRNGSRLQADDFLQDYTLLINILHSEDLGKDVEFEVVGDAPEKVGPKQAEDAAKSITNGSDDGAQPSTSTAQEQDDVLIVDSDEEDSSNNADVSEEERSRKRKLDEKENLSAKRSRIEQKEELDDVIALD
# Sequence of Hepatocyte nuclear factor 4-alpha (P41235 whole entry, the tested form may be a part): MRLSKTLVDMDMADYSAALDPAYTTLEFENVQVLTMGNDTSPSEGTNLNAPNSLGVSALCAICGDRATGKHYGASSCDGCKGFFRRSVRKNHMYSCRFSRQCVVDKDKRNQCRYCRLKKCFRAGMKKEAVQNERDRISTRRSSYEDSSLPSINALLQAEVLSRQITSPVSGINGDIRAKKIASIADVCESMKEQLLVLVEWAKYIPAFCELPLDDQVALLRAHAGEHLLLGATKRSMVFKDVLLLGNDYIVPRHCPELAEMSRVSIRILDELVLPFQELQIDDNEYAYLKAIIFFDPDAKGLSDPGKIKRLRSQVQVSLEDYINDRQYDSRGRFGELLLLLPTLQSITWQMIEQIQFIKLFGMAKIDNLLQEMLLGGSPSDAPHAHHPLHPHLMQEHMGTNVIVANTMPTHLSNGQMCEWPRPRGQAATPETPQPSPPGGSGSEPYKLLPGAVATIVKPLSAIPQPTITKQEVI
# Sequence of Genome polyprotein (P29990 2492-3391 limits assumed): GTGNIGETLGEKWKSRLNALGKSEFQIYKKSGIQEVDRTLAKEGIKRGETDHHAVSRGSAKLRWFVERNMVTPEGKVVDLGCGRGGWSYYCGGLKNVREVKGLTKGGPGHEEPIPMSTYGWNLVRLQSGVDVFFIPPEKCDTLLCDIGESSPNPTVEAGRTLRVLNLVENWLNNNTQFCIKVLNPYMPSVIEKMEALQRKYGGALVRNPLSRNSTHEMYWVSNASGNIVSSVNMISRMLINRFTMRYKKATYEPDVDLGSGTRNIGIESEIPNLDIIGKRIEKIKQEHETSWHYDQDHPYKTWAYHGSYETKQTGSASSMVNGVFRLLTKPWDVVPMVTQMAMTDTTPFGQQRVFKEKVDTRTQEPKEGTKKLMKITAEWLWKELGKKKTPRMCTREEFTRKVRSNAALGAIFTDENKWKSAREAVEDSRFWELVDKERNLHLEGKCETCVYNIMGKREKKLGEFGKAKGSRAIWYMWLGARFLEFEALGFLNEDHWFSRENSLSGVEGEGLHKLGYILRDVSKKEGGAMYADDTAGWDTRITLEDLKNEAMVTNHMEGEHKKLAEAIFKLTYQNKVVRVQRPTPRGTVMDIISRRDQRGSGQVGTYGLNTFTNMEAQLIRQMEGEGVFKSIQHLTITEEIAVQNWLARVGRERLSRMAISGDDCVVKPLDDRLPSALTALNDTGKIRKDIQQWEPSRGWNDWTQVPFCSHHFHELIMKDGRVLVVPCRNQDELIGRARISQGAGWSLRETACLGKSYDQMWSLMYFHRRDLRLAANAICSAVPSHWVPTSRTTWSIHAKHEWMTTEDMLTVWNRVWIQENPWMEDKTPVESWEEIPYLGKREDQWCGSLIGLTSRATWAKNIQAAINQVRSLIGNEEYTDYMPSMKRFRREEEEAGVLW
# Sequence of Melanocortin receptor 4 (P32245 whole entry): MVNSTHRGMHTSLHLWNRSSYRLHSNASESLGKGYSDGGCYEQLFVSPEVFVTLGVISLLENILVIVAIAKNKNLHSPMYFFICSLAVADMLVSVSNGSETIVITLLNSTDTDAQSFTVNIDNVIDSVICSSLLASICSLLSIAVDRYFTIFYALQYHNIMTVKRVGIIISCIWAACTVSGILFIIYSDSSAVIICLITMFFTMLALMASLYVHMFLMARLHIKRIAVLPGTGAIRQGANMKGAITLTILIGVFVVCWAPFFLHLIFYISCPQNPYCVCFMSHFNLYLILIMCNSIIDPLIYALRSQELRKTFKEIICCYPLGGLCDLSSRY
structure (smiles),measurement,setting,value
COc1cc(NS(=O)(=O)c2ccc(NC(=S)NC(=O)c3sc4ccccc4c3Cl)cc2)ncn1,EC50,[1],> 89.2 µM (inactive)
same,IC50,[2],11.4 µM (not active)
COc1ccc(N2C(=O)[C@@H]3[C@H](C2=O)[C@H]2c4ccccc4C=CN2[C@@H]3C(C)=O)cc1,IC50,[3],0.543 µM (active)
same,IC50,[4],3.03 µM (active)
same,IC50,[5],1.19 µM (active)
Cc1cc(Br)cc2c1NC(=O)C2(c1c(C)n(C)n(-c2ccccc2)c1=O)c1c(C)n(C)n(-c2ccccc2)c1=O,IC50,[6],6.52 µM (active)
same,IC50,[7],0.99 µM (active)
same,IC50,[8],> 49.8 µM (inactive)
same,IC50,[9],1.28 µM (active)
same,IC50,[10],> 66.2 µM (inactive)
same,IC50,[11],> 88.8 µM (inactive)
CC(=O)Cc1cc(O)c2ccccc2c1OC(=O)c1ccccc1,IC50,[12],14.6 µM (inactive)
same,EC50,[13],> 260 µM (inactive)
CCC(C)(C)C1CCc2c(sc(NC(=O)c3ccccc3C(=O)O)c2C#N)C1 (stereo unspecified),IC50,[14],15.3 µM (active)
same,AC50,[15],37.3 µM (active)
same,IC50,[16],42.6 µM (active)
same,IC50,[17],21.4 µM (active)
O=c1[nH]c(=S)[nH]cc1Oc1ccc(Cl)cc1Cl,IC50,[18],> 66 µM (inactive)
same,EC50,[19],> 104 µM (inactive)
same,IC50,[20],> 66 µM (inactive)
O=C(Cn1c(=O)n(Cc2ccco2)c(=O)c2c3c(sc21)CCCC3)Nc1ccccc1,IC50,[12],22.2 µM (inactive)
COc1ccc(C(=O)NCCc2c[nH]c3ccccc23)cc1S(=O)(=O)N1CCOCC1,AC50,[15],82.7 µM (active)
Cc1nc2c(-c3ccccc3)c(C)nn2c(N)c1-c1ccccc1,IC50,[6],13.3 µM (inactive)
same,IC50,[7],> 50 µM (inactive)
same,IC50,[8],49 µM (inactive)
same,IC50,[9],5.34 µM (active)
same,IC50,[10],> 66.2 µM (inactive)
same,IC50,[11],24.9 µM (inactive)
O=C(Cc1ccccc1)c1nc2ccccc2s1,IC50,[3],6.06 µM (active)
same,IC50,[4],25 µM (active)
same,IC50,[5],26.7 µM (active)
COc1ccc2cc3cc(C(=O)N4CCN(C5CCCCC5)CC4)oc3nc2c1,IC50,[21],0.92 µM (active)
O=C1C(Cl)=C(NCc2ccco2)C(=O)c2ccccc21,EC50,[19],> 104 µM (inactive)
CN(CCc1ccccc1)C(=O)c1ccc(NC(=O)Cc2ccc(NC(=O)C3CCN(C(=O)C4CCCCC4)CC3)cc2)cc1,IC50,[22],11.2 µM (inactive)
O=C(CN1C(=O)NC2(CCCC2)C1=O)NCCc1ccc(F)cc1,IC50,[23],6.2 µM (active)
same,IC50,[24],35.9 µM (inactive)
same,IC50,[25],35.9 µM (inactive)
Cn1c(N)c(C(=O)N/N=C/c2ccccc2)sc1=S,IC50,[6],2.75 µM (active)
same,IC50,[7],> 50 µM (inactive)
same,IC50,[8],> 49.7 µM (inactive)
same,IC50,[9],1.59 µM (active)
same,IC50,[10],> 66.2 µM (inactive)
same,IC50,[11],> 88.8 µM (inactive)
COc1ccc(/C=N/NC(=O)c2ccc(NC(=O)c3cccc([N+](=O)[O-])c3)cc2)c(OC)c1,IC50,[23],3.07 µM (active)
same,IC50,[24],23.1 µM (inactive)
same,IC50,[25],35.9 µM (inactive)

# From ChEMBL document CHEMBL1201862, “PubChem BioAssay data set” (2004)
